The record followed here is patent US7491534B2, “Methods for altering cell fate to generate T-cells specific for an antigen of interest” (priority 2000, dated 2009).

Numbered stars: 1 amine (or outer) side, 2 acyl side, 3 side chain; on linkers, the order of the positions; unused ones are H or OH. Bridge positions count the residues as written; N and C are the ends. Square brackets hold non-standard residues; d marks the D form. Peptide text beside a SMILES is read from it. I, II: the chains in the order shown. Actinocin(9to1) = Cc1c2oc3c(C)ccc(C(=O)[*:1])c3nc-2c(C(=O)[*:2])c(N)c1=O; NMeV = CN[C@H](C(=O)O)C(C)C; Sar = CNCC(=O)O

The test system of test [1] is NFAT, c-Jun/AP 1, NFκB, and MAP kinase (Erk1 and Erk2). In words: Nuclear uptake of transcription factors by resting T-cell nuclei in cell-free extract (immunoblot). The conditions noted are these: in stimulated extract; ATP or GTP substituted, or nuclear pores blocked. In kind it is biochemical, human. On the procedure: A stimulated T-cell extract was prepared by lysing these T-cells, centrifuging them at 15,000×g, isolating the supernatant, and adding an ATP-generating system to the supernatant. In particular, cells were disrupted with a tip sonicator until over 90% of the cells and nuclei were lysed. The lysate was cleared at 15,000×g for 15 minutes at 4° C. The supernatant was used fresh or aliquoted, frozen in liquid nitrogen, and stored at −80° C. […] Extract from unstimulated T-cells (USE) were prepared from mock (H2O)-stimulated T-cells. A reprogramming reaction consisted of 20 μl or multiples thereof of stimulated extract or unstimulated extract containing 10^5 nuclei and an ATP generating system (1 mM ATP, 10 mM creatine phosphate, 25 μg/ml creatine kinase, and 100 μM GTP).
To generate donor nuclei, resting peripheral blood T-cells were washed and resuspended in 20 volumes of ice-cold hypotonic nuclear buffer (10 mM Hepes, pH 7.5, 2 mM MgCl2, 25 mM KCl, 1 mM DTT, and protease inhibitors). Nuclei were isolated by careful Dounce-homogenization, sedimented at 400×g and washed in nuclear buffer (hypotonic nuclear buffer/250 mM sucrose). HUVEC, HeLa, and NT2 nuclei were isolated similarly. Nuclear integrity prior to, and after, incubation in the extract was monitored by phase contrast microscopy and by nuclear membrane labeling with 10 μg/ml of the lipophilic dye, DiOC6 (FIG. 8A). […]
The ability of other transcription factors from the extract to migrate into the nuclei of T-cells, B-cells, fibroblasts, and HeLa cells was also determined. […] As expected for a whole cell extract, NFAT, AP-1, or NFκB, Oct-1 and Erk (1 and 2) were detected on Western blots of input stimulated extract prior to incubation of the nuclei (FIG. 8B). […] The ubiquitous transcription factor Oct-1 was detected in similar amounts in input nuclei and nuclei exposed to stimulated extract or unstimulated extract (FIG. 8B, Oct-1).

Test [2] relates to IL-2 gene. The test can be described thus: RT-PCR of IL-2 mRNA in HUVEC, NT2 and HeLa nuclei incubated in extract. The conditions noted are these: 50 nM actinomycin D; mAb414. In kind it is biochemical, human. On the procedure:
As a more stringent indicator of nuclear reprogramming, activation of the IL-2 gene was monitored in nuclei purified from primary human umbilical vein endothelial cells (HUVEC), NT2 neuronal precursors, and HeLa cells after a two hour incubation in the stimulated extract. […] IL-2 activation was dependent on RNA Pol II activity and nuclear import, based on its elimination by 50 nM actinomycin D and mAb414, respectively (FIG. 10C).

Test [3] relates to IL-2 gene. In words: RT-PCR of IL-2 transcription in 293T fibroblast nuclei. In kind it is biochemical, human. The conditions noted are these: 293T nuclei; mAb414 or 50 nM actinomycin D. On the procedure: Another and more stringent indicator of nuclear reprogramming was induction of IL-2 transcription in 293T fibroblast nuclei exposed to stimulated T-cell extract (FIG. 12D). Total RNA was isolated using the Qiagen RNeasy kit, and 15 ng RNA was used as the template for RT-PCR using the Promega Access RT-PCR System. A 467-bp product was amplified using the IL-2-specific primers 5′-[…]-3′ (SEQ ID NO: 5) and 5′-[…]-3′ (SEQ ID NO: 6) by 30 cycles of denaturation at 94° C. for 30 seconds, annealing at 60° C. for one minute, and extension at 72° C. for one minute. […] As expected from the above results, the IL-2 transcript was absent from input nuclei, input stimulated T-cell extract, and nuclei exposed to stimulated T-cell extract containing either 100 pg/ml RNAse A, mAb414, or 50 nM of the RNA polymerase II (Pol II) inhibitor, actinomycin D (FIG. 12D). Similar results were obtained with neuronal precursor NT2 nuclei and resting T-cell nuclei (FIG. 12D).

The subject of another test is 293T fibroblasts. The test can be described thus: Permeabilization of 293T fibroblasts judged by propidium iodide uptake. The conditions noted are these: 200 ng/ml, 50 minutes at 37° C. In kind it is cell-based, human. On the procedure: For these studies, 293T fibroblasts were grown on 16-mm poly-L-lysine-coated coverslips in RPMI1640 to 100,000 cells/coverslip in 12-well plates. Cells were permeabilized in 200 ng/ml streptolysin O in Ca^2+-free Hanks Balanced Salt Solution (Gibco-BRL) for 50 minutes at 37° C. in regular atmosphere. Over 80% of 293T cells were permeabilized under these conditions, as judged by propidium iodide uptake. Streptolysin O was aspirated; coverslips overlaid with 80 μl of either 293T, Jurkat-Tag, or NT2 extract; and incubated for one hour at 37° C. in CO2 atmosphere. Each extract contained the ATP generating system and 1 mM each of ATP, CTP, GTP and UTP. Extracts from Jurkat-TAg cells were prepared as described above after co-stimulation for 1-2 hours with 40 ng/ml anti-CD3 antibodies (clone SpvT3d obtained from A. M. Rasmussen, Norwegian Radium Hospital, Montebello, Norway) and 0.1 μM PMA. The neuronal precursor NT2 extract was prepared from confluent NT2 cells (Stratagene) by sonication and sedimentation as described above. To reseal plasma membranes, RPMI1640 containing 2 mM CaCl2 (added from a 1 M stock in H2O) was added to the wells, and the cells were incubated for two hours at 37° C. This procedure resealed ˜100% of the permeabilized cells. Ca^2+-containing RPMI was replaced by RPMI, and the cells were expanded for several weeks.

The test system of test [4] is IL-2 gene. In words: RT-PCR of IL-2 mRNA in resting T-cell nuclei incubated in extract. In kind it is biochemical, human. The conditions noted are these: mAb414 antibody or 0.5 mg/ml wheat germ agglutinin. On the procedure:
As controls, nuclei were incubated in stimulated extract containing either 100 μg/ml RNAse A, 100 μg/ml DNAse I, mAb414 antibodies, or the lectin WGA. After 30 minutes at 30° C., nuclei were lysed in the extracts by sonication and 3 μl extract aliquots were removed for RT-PCR analysis using IL-2-specific primers. In particular, total RNA was isolated using the Qiagen RNeasy kit, and 15 ng RNA was used as the template for RT-PCR using the Promega Access RT-PCR System. A 467-bp IL-2 cDNA was amplified using the IL-2-specific primers 5′-[…]-3′ (SEQ ID NO: 3) and 5′-[…]-3′ (SEQ ID NO:4). PCR conditions were 30 cycles of denaturation at 94° C. for one minute, annealing at 60° C. for two minutes, and extension at 72° C. for three minutes. Input stimulated extract and a control stimulated extract containing 1.2 μg total RNA isolated from IL-2-producing T-cells were also analyzed (FIGS. 5A and 10A). […] The PCR product of the expected size (467 base pairs) was absent from input nuclei and input stimulated extract (as expected from FIG. 7), nuclei exposed to unstimulated extract (Nuclei-USE), and nuclei exposed to stimulated extract followed by treatment with 100 μg/ml RNAse A, but not 100 μg/ml DNAse I, prior to RT-PCR. Thus, detection of IL-2 mRNA was the result of IL-2 transcription and not of RNA contamination in input nuclei or in the extract. […]

On to `Nc1ncnc2c1ncn2[C@@H]1O[C@H](COP(=O)(O)OP(=O)(O)NP(=O)(O)O)[C@@H](O)[C@H]1O` [AMP-PNP], for which the “nuclear uptake (import) of transcription factors in resting T-cell nuclei” value (“nuclear uptake (import)” for short) in test [1] is reported as “inhibited”.

Take `Nc1ncnc2c1ncn2[C@@H]1O[C@H](COP(=O)(O)OP(=O)(O)OP(O)(O)=S)[C@@H](O)[C@H]1O` [ATPγS]: the “nuclear uptake (import)” value in test [1] is on record as “inhibited”.

On to `Nc1nc2c(ncn2[C@@H]2O[C@H](COP(=O)(O)OP(=O)(O)OP(O)(O)=S)[C@@H](O)[C@H]2O)c(=O)[nH]1` [GTPγS], for which the “nuclear uptake (import)” value in test [1] was “inhibited”.

On to `Cc1c2oc3c(C)ccc(C(=O)N[C@@H]4C(=O)N[C@H](C(C)C)C(=O)N5CCC[C@H]5C(=O)N(C)CC(=O)N(C)[C@@H](C(C)C)C(=O)O[C@@H]4C)c3nc-2c(C(=O)N[C@@H]2C(=O)N[C@H](C(C)C)C(=O)N3CCC[C@H]3C(=O)N(C)CC(=O)N(C)[C@@H](C(C)C)C(=O)O[C@@H]2C)c(N)c1=O` [actinomycin D] (I: T[dV]P[Sar][NMeV] / II: T[dV]P[Sar][NMeV]; ester I:1-I:C, II:1-II:C; linker I:N-II:N via Actinocin(9to1)), for which the “IL-2 activation in stimulated extract with inhibitor” value with IL-2 gene [2] was “elimination”. Moreover, the “IL-2 transcript in stimulated T-cell extract with inhibitor” value with IL-2 gene [3] is listed as “absent”.

Consider “streptolysin O: bacterial toxin used to reversibly permeabilize cells”, for which the 293T cells permeabilized entry in the test on 293T fibroblasts is recorded as “Over 80%”.

Turning to wheat germ agglutinin, the “IL-2 transcription in stimulated extract with nuclear pore function blocked” value in the test on IL-2 gene [4] is “abolished”.
